Assay results as given in publication PMC10828251, “A novel PSMA-targeting tracer with highly negatively charged linker demonstrates decreased salivary gland uptake in mice compared to [^68Ga]Ga-PSMA-11” (EJNMMI Radiopharmacy and Chemistry, 2024).
Values joined by “and” are separate entries in the source; they are usually repeats but may differ in a detail not shown here. Equal values may be shown once. Read-outs that look alike come from different tables or passages of the source. Each block holds one molecule with its values, some of them ahead of it. Numbered stars: 1 amine (or outer) side, 2 acyl side, 3 side chain; on linkers, the order of the positions; unused ones are H or OH. Peptide text beside a SMILES is read from it. * marks the point of attachment. X1 = O=C(O)CN1CCN(CC(=O)O)CC(Cc2ccc(NC(=S)*)cc2)N(CC(=O)O)CC1; DOTA = O=C(O)CN1CCN(CC(=O)O)CCN(CC(=O)*)CCN(CC(=O)O)CC1; γGlu = O=C(O)[CH](CCC(=O)[*:2])N[*:1]; CO = O=C([*:1])[*:2]; Ahx = NCCCCCC(=O)O

Tests used:
[1] = assessment of stability (radiolysis) by radio-HPLC; assay type: physicochemical; details: for degradation on radio-HPLC after Ga-68 labeling without radioprotectant: aqueous sodium acetate buffer
Protocol: The compound in Figure 7 was not further developed as a potential theranostic agent since the need for a radioprotectant with Ga-68 labeling indicated potentially significant instability with high dose beta and alpha emitters.
Figure 8. Radio-HPLC trace of the compound in Figure 7 seventy minutes after labeling with Ga-68. The labeling reaction consisted of 2 μL of the compound (0.5mg/mL), 40 μL of NaOAc Buffer B, 5 μL ascorbic acid (100mg/mL) and 0.2mL of Eckert & Ziegler GalliaPharm Generator eluate. Buffer B composition is stated above. The HPLC gradient used was 5%-95%B in 15 minutes where solvent B is acetonitrile and solvent A is water with 0.1% formic acid. Column: Phenomenex Synergi Hydro-RP 80A 150x4.6mm 4 micrometer column (Phenomenex, Torrance, CA).
Figure 10. Radio-HPLC trace of [^68Ga]Ga-JB-1498 immediately after radiolabeling. The small signal at the solvent front is a very small amount of [^68Ga]GaCl3. The labeling reaction contained 2 μL of JB1498 (0.5mg/mL), 40 μL of NaOAc Buffer B and 0.2mL of Eckert & Ziegler GalliaPharm Generator eluate. Buffer B composition is stated above. The HPLC gradient used was 5%-95%B in 15 minutes where solvent B is acetonitrile and solvent A is water with 0.1% formic acid. Column: Waters (Milford, MA) Symmetry C18, 5μm, 4.6 x 150 mm column.

[2] = target: T1, GCP-II (Homo sapiens, UniProt Q04609); experiment: fluorescent enzymatic inhibition assay (competitive binding assay; NAAG hydrolysis by PC3-PIP membranes, Amplex Red glutamic acid readout); assay type: biochemical; details: upper limit set from the EC50; read-out: upper limit of Ki to PSMA
T1 construct: expressed in transfected cells; host or cells: PC3-PIP cells: washed membrane preparation after freeze-thaw cycles, 10 µg per well
Protocol: Binding affinity of JB-1498 toward GCP-II was determined using fluorescent enzymatic inhibition assay (Kozikowski et al. [2004]) as detailed in the Additional file 1.
PC3-PIP PSMA expressing cells were grown to confluency, harvested in 50mM Tris-HCl, pH 7.5 and subjected to 4 freezing and thawing cycles. Cell membranes were washed three times by centrifugation at 12,000g or higher. The cell membrane mixture was diluted to a concentration of 50 mg/mL in 50mM Tris-HCl, pH 7.5 (based on wet weight of the solid after centrifugation) and stored in a -80°C freezer until ready to use.
The assays were conducted on 96-well plates. […] Then the glutamic acid concentration was measured with Amplex Red glutamic acid assay kit (Invitrogen-Molecular Probes, now part of Thermo Fisher Scientific, Waltham, MA)) using a fluorescent plate reader (excitation at 530nm, measuring emission at 590nm). The fluorescence signals at 590nm were then normalized and normalized fluorescence was plotted against the Log concentration of JB1498 ligand (Figure 1). EC50 was determined using the equation: Fluorescence = baseline + (max fluorescence – baseline) […]. Microsoft Excel and KaleidaGraph (Synergy Software, Reading, PA) were used for data processing and graphing.

[3] = high molar activity biodistribution study in non-tumor-bearing NSG mice; assay type: in vivo; details: 1 hour after injection, high specific activity 59 GBq/μmol
Protocol: For the high molar activity biodistribution and imaging study, a fresh 1.85 GBq (50mCi) GalliaPharm Gallium-68 generator from Eckert & Ziegler (Berlin, Germany) was used. Radiolabeling of JB-1498 with [^68Ga]GaCl3 was performed in aqueous sodium acetate buffer at pH 4–5 and 98 °C for 10 min. The reaction product was diluted with water, loaded onto an Oasis HLB cartridge, washed with water, and eluted with 2:1 PBS:EtOH as detailed in the Additional file 1. The fractions with highest radioactivity were diluted with saline for injection in mice. Please refer to Additional file 1: Figs. 4 and Fig. 5 for HPLC traces of the products prior to and after solid phase extraction. The molar activity of the purified product was estimated to be 59 GBq/μmol (1600 Ci/mmol) at the time of first injection. [^68Ga]Ga-PSMA-11 was produced concurrently by incubating [^68Ga]GaCl3 and PSMA-11 precursor in sodium acetate buffer at pH 4–5 at room temperature for 10 min. Please refer to Additional file 1: Fig. 6 for HPLC trace of the product. The molar activity of the product was estimated to be 48 GBq/μmol (1300 Ci/mmol) at the time of first injection.
For the high molar activity biodistribution study aimed at maximizing salivary gland uptake, 3 male NSG mice without tumor were injected with 100μL of the [^68Ga]Ga-JB-1498 solution under anesthesia via retro-orbital injection per the above-described protocol. The dose injected was 1.31 ± 0.26 MBq.

[4] = micro-PET imaging in non-tumor-bearing NSG mice; assay type: in vivo; details: for course of activity in salivary glands and kidneys, dynamic micro-PET: during the first hour
Protocol: For the micro-PET imaging study, high molar activity [^68Ga]Ga-JB-1498 and [^68Ga]Ga-PSMA-11 were administered to non-tumor bearing NSG mice via tail vein injection. The dose injected was 5.3MBq of [^68Ga]Ga-PSMA-11 and 4.4 MBq of [^68Ga]Ga-JB-1498. Imaging was performed on a nanoScan PET/CT instrument (Mediso USA, Arlington, Virginia). List mode PET acquisition was performed for 45 min starting 25 min post-injection. CT was performed for PET attenuation correction and anatomic localization.

[5] = tested on: PC3-PIP PSMA-expressing cell line; experiment: initial biodistribution study, low molar activity, PC3-PIP tumor-bearing NSG mice; assay type: in vivo; details: 1 hour after injection, specific activity below 7.4 GBq/μmol; for Biodistribution, Tumor: PC3-PIP PSMA+ tumor, NSG mice
Protocol: Radiolabeling of JB-1498 for the initial biodistribution study was performed using [^68Ga]GaCl3 from a spent ^68Ge/^68Ga generator from Isotopen Technologies Garching (Garching, Germany, currently ITM). JB-1498 with [^68Ga]GaCl3 was heated in aqueous sodium acetate buffer at pH 4–5 and 97 C for 7 min. The reaction product was HPLC-purified for the biodistribution study as detailed in the Additional file 1. The molar activity of the purified product was less than 7.4 GBq/μmol (200 Ci/mmol) at the conclusion of synthesis.
For the initial biodistribution study in tumor bearing mice, 3 male 10 week-old NSG mice (NOD.Cg-Prkdc^scidIl2rg^tm1Wjl/SzJ) were inoculated subcutaneously with 4 million cells of PC3-PIP PSMA-expressing cell line. Mice were housed in a specific pathogen free, temperature- and humidity-controlled environment, in standard micro-isolator top cages with ad libitum access to chow. Biodistribution studies were conducted when the long axis of the tumor exceeded 1 cm. Each mouse was injected with 100 μL of the [^68Ga]Ga-JB-1498 solution under isoflurane anesthesia via retro-orbital injection in the right eye and euthanized 1 h after injection. Major organs (including the left salivary glands) were dissected for radioactivity quantification. The dose injected was 0.74 ± 0.27 MBq.

[6] = tested on: LNCaP cell line; design: method as in Rousseau et al. [2018]; details: NSG mice, one hour after injection, ref Rousseau et al. [2018], cited from earlier work
[7] = tested on: PSMA-expressing metastatic prostate cancer; design: method as in Sartor et al. [2021]; details: 7.4 GBq (200 mCi) regimen; ref Sartor et al. [2021]; cited from earlier work
[8] = N=3, listed as [^68Ga]Ga-JB1498
[9] = LNCaP tumor model, listed as [^68Ga]Ga-PSMA 11

T1 sequence (Q04609 whole entry): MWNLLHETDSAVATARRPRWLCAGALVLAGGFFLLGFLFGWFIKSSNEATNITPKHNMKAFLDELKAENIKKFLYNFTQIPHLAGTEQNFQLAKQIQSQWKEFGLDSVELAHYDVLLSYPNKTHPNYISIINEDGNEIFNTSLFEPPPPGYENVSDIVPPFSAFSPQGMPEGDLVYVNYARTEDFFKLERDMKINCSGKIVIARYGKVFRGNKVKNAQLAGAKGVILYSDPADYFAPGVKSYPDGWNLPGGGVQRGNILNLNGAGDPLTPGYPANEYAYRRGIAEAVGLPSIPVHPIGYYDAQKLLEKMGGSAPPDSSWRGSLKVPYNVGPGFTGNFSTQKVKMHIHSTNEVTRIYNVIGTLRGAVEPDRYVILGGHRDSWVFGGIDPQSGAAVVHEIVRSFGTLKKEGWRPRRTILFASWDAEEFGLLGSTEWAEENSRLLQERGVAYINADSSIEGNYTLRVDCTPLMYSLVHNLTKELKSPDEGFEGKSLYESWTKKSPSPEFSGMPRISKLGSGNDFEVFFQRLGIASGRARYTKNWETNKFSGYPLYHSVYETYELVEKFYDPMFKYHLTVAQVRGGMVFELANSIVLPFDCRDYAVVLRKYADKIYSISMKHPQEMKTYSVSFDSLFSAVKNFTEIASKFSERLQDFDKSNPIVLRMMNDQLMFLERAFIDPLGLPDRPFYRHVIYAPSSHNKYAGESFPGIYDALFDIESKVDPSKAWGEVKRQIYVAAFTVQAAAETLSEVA

Molecule: NC(=O)C(CCCCNC(=O)CN1CCN(CC(=O)O)CCN(CC(=O)O)CCN(CC(=O)O)CC1)NC(=O)C(Cc1ccc(O)cc1)NC(=O)C(CCC(=O)O)NC(=O)C(CCC(=O)O)NC(=O)C(CCC(=O)O)NC(=O)CCCCCNC(=O)CCC(NC(=O)NC(CCC(=O)O)C(=O)O)C(=O)O (centres unmarked) [JB-1498] ({Glu-CO-γGlu-Ahx}-EEEYK(DOTA)-NH2; configuration not given here)
- Ki [2]: < 0.3 nM

Molecule: NC(=O)C(CCCCNC(=O)CN1CCN(CC(=O)O)CCN(CC(=O)O)CCN(CC(=O)O)CC1)NC(=O)C(Cc1ccc(O)cc1)NC(=O)C(CCC(=O)O)NC(=O)C(CCC(=O)O)NC(=O)C(CCC(=O)O)NC(=O)CCCCCNC(=O)CCC(NC(=O)NC(CCC(=O)O)C(=O)O)C(=O)O.[68Ga] (centres unmarked) [[^68Ga]Ga-JB-1498] ({Glu-CO-γGlu-Ahx}-EEEYK(DOTA)-NH2; configuration not given here)
- degradation on radio-HPLC after Ga-68 labeling without radioprotectant ([1]; no radioprotectant): no significant degradation
- radiolysis on radio-HPLC 2.5 hours after synthesis ([1]; no radioprotectant, compared to trace immediately after radiolabeling): no significant radiolysis
- Biodistribution, Blood ([3]; N=3): 0.39%ID/gram of tissue
- Biodistribution, Combined Salivary gland ([3]; N=3): 0.39%ID/gram of tissue
- Biodistribution, Kidney ([3]; N=3): 10.12%ID/gram of tissue
- Biodistribution, Liver ([3]; N=3): 0.68%ID/gram of tissue
- Biodistribution, Lung ([3]; N=3): 0.66%ID/gram of tissue
- Biodistribution, Spleen ([3]; N=3): 2.34%ID/gram of tissue
- Biodistribution, parotid (Left) ([3]; N=3): 0.36%ID/gram of tissue
- Biodistribution, submandibular (Left) ([3]; N=3): 0.42%ID/gram of tissue
- Biodistribution, Combined Salivary gland [3, 8]: 0.39 ± 0.24 %ID/gram of tissue
- Biodistribution, Kidney [3, 8]: 10.12 ± 1.73 %ID/gram of tissue
- salivary gland (SG) and background activity on micro-PET compared to [68Ga]Ga-PSMA-11 ([4]; 1 h post injection, same SUV grayscale): very little
- tracer excretion on micro-PET ([4]; 1 h post injection, most of injected tracer in the urinary bladder): rapid tracer excretion via the kidneys
- salivary gland and kidney uptake on micro-PET images compared to [68Ga]Ga-PSMA-11 ([4]; 1 h post-injection, tail vein, non-tumor bearing NSG mice): much lower
- course of activity in salivary glands and kidneys, dynamic micro-PET [4]: gradually decreasing
- Biodistribution, Tumor [5]: 12.09%ID/gram of tissue and 10.49%ID/gram of tissue
- Biodistribution, Tumor ([5]; listed as [^68Ga]Ga-JB1498): 12.09 ± 1.28 %ID/gram of tissue
- Biodistribution, Blood ([5]; PSMA+ tumor-bearing NSG mice): 0.22%ID/gram of tissue
- Biodistribution, Bone ([5]; PSMA+ tumor-bearing NSG mice): 0.11%ID/gram of tissue and 0.10%ID/gram of tissue
- Biodistribution, Heart ([5]; PSMA+ tumor-bearing NSG mice): 0.12%ID/gram of tissue and 0.11%ID/gram of tissue
- Biodistribution, Liver ([5]; PSMA+ tumor-bearing NSG mice): 0.20%ID/gram of tissue and 0.18%ID/gram of tissue
- Biodistribution, Lung ([5]; PSMA+ tumor-bearing NSG mice): 0.24%ID/gram of tissue and 0.21%ID/gram of tissue
- Biodistribution, Muscle ([5]; PSMA+ tumor-bearing NSG mice): 0.22%ID/gram of tissue and 0.19%ID/gram of tissue
- Biodistribution, Salivary gland ([5]; PSMA+ tumor-bearing NSG mice): 0.13 ± 0.01 %ID/gram of tissue and 0.13%ID/gram of tissue and 0.11%ID/gram of tissue
- Biodistribution, Spleen ([5]; PSMA+ tumor-bearing NSG mice, 2 splenic samples): 0.31%ID/gram of tissue and 0.27%ID/gram of tissue
- Biodistribution, Liver ([5]; PSMA+ tumor-bearing NSG mice, listed as [^68Ga]Ga-JB1498): 0.20 ± 0.09 %ID/gram of tissue
- Biodistribution, Kidney ([5]; PSMA+ tumor-bearing NSG mice, single sample of left kidney): 12.98%ID/gram of tissue

Molecule: [^177Lu]Lu-PSMA-617
- complete response [7]: 9%
- partial response [7]: 42%

Further lines, with some results ahead:

- degradation on radio-HPLC after Ga-68 labeling without radioprotectant ([1]; no radioprotectant): multiple peaks in radio-HPLC
- radiolysis on radio-HPLC two hours after radiolabeling ([1]; in the presence of ascorbic acid): some radiolysis
Molecule: NC(=O)C(CCCCNC(=S)Nc1ccc(CC2CN(CC(=O)O)CCN(CC(=O)O)CCN2CC(=O)O)cc1)NC(=O)C(Cc1ccc(O)cc1)NC(=O)C(CCC(=O)O)NC(=O)C(CCC(=O)O)NC(=O)C(CCC(=O)O)NC(=O)CCCCCNC(=O)CCC(NC(=O)NC(CCC(=O)O)C(=O)O)C(=O)O (centres unmarked) (68Ga complex, metal not drawn) [compound in Figure 7] ({Glu-CO-γGlu-Ahx}-EEEYK(X1)-NH2; configuration not given here)
- stability on radio-HPLC after Ga-68 labeling with radioprotectant ([1]; aqueous sodium acetate buffer with ascorbic acid): reasonable stability with minimal degradation

- course of activity in salivary glands and kidneys, dynamic micro-PET [4]: gradually increasing
Molecule: O=C([O-])CN(CCN(CC(=O)[O-])Cc1cc(CCC(=O)NCCCCCC(=O)NCCCC[C@H](NC(=O)N[C@@H](CCC(=O)O)C(=O)O)C(=O)O)ccc1[O-])Cc1cc(CCC(=O)O)ccc1[O-].[68Ga+3].[OH3+] [[^68Ga]Ga-PSMA-11]
- Biodistribution, Blood ([6]; LNCaP tumor model): 0.31%ID/gram of tissue
- Biodistribution, Kidney ([6]; LNCaP tumor model): 182.0 ± 33.5 %ID/gram of tissue
- Biodistribution, Liver ([6]; LNCaP tumor model): 0.44%ID/gram of tissue
- Biodistribution, Muscle ([6]; LNCaP tumor model): 0.54%ID/gram of tissue
- Biodistribution, Salivary gland ([6]; LNCaP tumor model): 10.00 ± 2.52 %ID/gram of tissue
- Biodistribution, Spleen ([6]; LNCaP tumor model): 22.20%ID/gram of tissue
- Biodistribution, Kidney [6, 9]: 182.00%ID/gram of tissue
- Biodistribution, Salivary gland [6, 9]: 10.00%ID/gram of tissue
- Biodistribution, Tumor ([6]; LNCaP tumor): 8.67%ID/gram of tissue
